Laboratory results taken from article PMC9688808, “Discovery of Novel Lin28 Inhibitors to Suppress Cancer Cell Stemness” (Cancers, 2022).

Columns and labels:
Lin28B ZKD [1] = molecular target: T1, Lin28B ZKD (Homo sapiens, UniProt Q6ZN17); assay: EMSA, Lin28B ZKD–Let-7 complex; type: binding; conditions: compounds 0–1200 uM
T1 construct: His-tagged human Lin28B ZKD (aa110-174); His-tag; made in house; host or cells: Escherichia coli BL21
T1 sequence (Q6ZN17 110-174): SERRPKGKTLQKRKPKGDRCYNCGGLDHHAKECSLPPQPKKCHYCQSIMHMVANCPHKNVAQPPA
Procedure: EMSA followed the standard protocols we published with minor modifications. An IRDye800CWN-labeled Let-7 RNA probe was purchased from IDT (Coralville, IA, USA). Lin28B or Lin28A proteins were incubated with […] of probe in a standard 20 uL EMSA reaction in a reaction buffer containing 20 mM HEPES-NaOH, pH 7.4, 2 mM DTT, 3 mM MgCl2, 0.05% NP-40, protease inhibitors, and 0.1 ug poly[dI:dC]. After incubation for 30 min at 37 °C, reactions were loaded onto 4% non-denatured polyacrylamide gel in 0.5× TBE buffer. The RNA oligo bands were visualized by using the Li-Cor Odyssey 9120 Infrared Imaging System.
(§1) Figure 3 Lin28 inhibitors block the interaction between Lin28B ZKD and Let-7. (A) EMSA used 10 nM of IR800DyeCWN-labeled let-7 probe (lane 1), 0.5 uM Lin28B ZKD protein with 10 nM of labeled Let-7 probe (lane 2), or Lin28B ZKD, labeled Let-7 probe and 100× non-labelled competitor probe (lane 3). EMSA used Lin28B ZKD, labeled Let-7 probe, and 100–1200 uM of indicated compounds (lanes 4–10). (B) FP assays were performed by using 10 uM of Lin28B ZKD and 1 nM of FAM-labeled Let-7 probe and 1 nM–1000 uM of compounds. (C) Bio-layer interferometry (BLI) assays were performed using 0–25 uM of Ln115 with Avi-tagged Lin28B ZKD protein. (D) Chemical structures of the three lead compounds were shown.

Lin28B ZKD [2] = molecular target: T1, Lin28B ZKD; assay: Bio-layer interferometry (BLI) with Avi-tagged Lin28B ZKD; type: binding; conditions: for BLI binding to Lin28 ZKD: up to 100 µM
Procedure: BLI assays were performed as we previously reported to quantify the direct and reversible interactions between small molecules and Lin28B ZKD by using OctetRED (ForteBio, Bohemia, NY, USA). Lin28B was thus expressed with His-tag and a biotinylated AviTag sequence ([…]) at its N-terminus in Escherichia coli BL21 cells. Purified Lin28B ZKD (50 ug/mL) was bound to the super-streptavidin sensors for 1 h at room temperature. Sensors were next blocked with biocytin, washed, and then dipped into wells containing increasing concentrations of the tested inhibitors in assay buffer (20 mM N-2-hydroxyethylpiperazine-N0-2-ethanesulfonic acid (HEPES), 150 mM NaCl, 500 uM tris(2-carboxyethyl) phosphine (TCEP), and 1% dimethylsulfoxide (DMSO)). Association for 200 s and dissociation in assay buffer for 100 s were recorded for each well. Data analysis was done using the OctetRED software (ForteBio, Bohemia, NY, USA).
as §1
To validate that these molecules indeed directly bind to the ZKD domain of Lin28 in a reversible and dose-dependent manner, we used the biolayer interferometry (BLI) assay. Biotinylated Avi-tagged Lin28 ZKD was immobilized onto streptavidin biosensors. The sensor plates were then dipped in successive wells containing increasing concentrations of Ln7, Ln 15, or Ln115. […]

concentration that disrupts ZKD–Let-7 complex in EMSA (Lin28B ZKD [1]) [µM] | BLI binding to Lin28 ZKD (Lin28B ZKD [2]) | inhibition of ZKD–Let-7 complex in EMSA (Lin28B ZKD [1]) | Kd (Lin28B ZKD [2]; 0–25 uM Ln115, Avi-tagged Lin28B ZKD, read-out: estimated KD (BLI)) [µM] | SMILES
> 1000 | did not show any binding |  |  | CCc1cc(=O)[nH]c(Nc2cc(Cl)ccc2O)n1 [Ln7]
 |  | robust inhibition |  | CCOc1cccc2c1N[C@@H](c1ccc(C(=O)O)cc1)[C@H]1CC=C[C@@H]21 [Li71, reference compound]
400 | non-specific binding to the sensors |  |  | O=c1[nH]c(Nc2ccccc2O)cs1 [Ln15]
 |  |  | 60 ± 4 | O=c1cccc(-c2nc3cc(F)c(O)cc3c(=O)[nH]2)[nH]1 [Ln115]
